Results: patent US20250127772A1, “SPECIFIC TETRADENTATE COPPER CHELATORS FOR THE TREATMENT OF WILSON'S DISEASE” (GUANGDONG UNIVERSITY OF TECHNOLOGY, priority 2023, published 2025)

System: hepatic DEPs
Assay: Hepatic differentially expressed proteins (TMT LC-MS/MS) in treated TX mice
Format: in vivo, mouse
Experimental: In order to confirm the positive role of TDMQ20 in the treatment of TX mice, we performed proteomic experiments. Samples from three mice of each group were depicted in Table 1, The samples were treated with TMT (Tandem Mass Tag) and detected by quantitative LC-MS/MS, then the data were analyzed with ProteomeDiscoverer 2.4.1.15 (ThermoFisher Scientific). Confidence proteins were screened according to the criteria of Sequest program score greater than 0 and number of unique peptides greater than or equal to 1, and blank values were removed.
Other differentially expressed proteins (DEPs) were screened at p<0.05 in the WD mouse group compared to the control group. […] Results are reported in Table 3 and 4 for hepatic and serum proteins, respectively.

[1] = liver, 25 mg/kg/day, DEP down-regulated in WD
[2] = liver, 25 mg/kg/day, DEP up-regulated in WD
[3] = liver, 50 mg/kg/day, DEP down-regulated in WD
[4] = liver, 50 mg/kg/day, DEP up-regulated in WD

## CN(C)CCNCCc1ccc2c(Cl)cc(Cl)c(N)c2n1 [TDMQ20]
TDMQ20 50 mg/kg
  hepatic DEPs TDMQ20-H/control ratio: ~1
TDMQ20 at 25 or 50 mg/kg
  hepatic DEPs after treatment: reversed to normal values
[1]
  TDMQ20-M/control fold change: 2-Oxo-4-hydroxy-4-caboxy-5-ureidoimidazoline decarboxylase (Urad): 0.93
  TDMQ20-M/control fold change: ATP-citrate synthase (Acly): 0.86
  TDMQ20-M/control fold change: Alcohol deshydrogenase class-3 (Adh5): 0.89
  TDMQ20-M/control fold change: Aspartate-tRNA ligase, cytoplasmic (Dars1): 1.03
  TDMQ20-M/control fold change: Charged multivesicular body protein 7 (Chmp7): 1.04
  TDMQ20-M/control fold change: Cytochrome P450 2C70 (Cyp2c70): 0.85
  TDMQ20-M/control fold change: Desmin (Des): 0.88
  TDMQ20-M/control fold change: Mesencephalic astrocyte-derived neurotrophic factor (Manf): 0.94
  TDMQ20-M/control fold change: Nicotinamide/nicotinic acid mononucleotide adenylyltransferase 3 (Nmnat3): 0.97
  TDMQ20-M/control fold change: Progranulin (Gm): 1.05
  TDMQ20-M/control fold change: Putative phospholipase B-like 2 (Plbd2): 0.98
  TDMQ20-M/control fold change: Pyridoxine-5′-phosphate oxidase (Pnpo): 1.01
  TDMQ20-M/control fold change: Ribosome biogenesis protein BOP1 (Bop1): 1.08
  TDMQ20-M/control fold change: Triosephosphate isomerase (Tpi1): 0.85
[2]
  TDMQ20-M/control fold change: 28 kDa heat- and acid-stable phosphoprotein (Pdap1): 1.15
  TDMQ20-M/control fold change: AN1-type zinc finger protein 6 (Zfand6): 1.09
  TDMQ20-M/control fold change: ATP synthase subunit a (Mtatp6): 1.04
  TDMQ20-M/control fold change: Afadin (Afdn): 1.07
  TDMQ20-M/control fold change: Agmatinase, mitochondrial (Agmat): 1.15
  TDMQ20-M/control fold change: Alanine glyoxylate aminotransferase (Agxt): 1.18
  TDMQ20-M/control fold change: Alpha-1-antitrypsin-1-2 (Serpina1b): 1.09
  TDMQ20-M/control fold change: Cyclin-dependent kinase inhibitor 1B (Cdkn1b): 1.13
  TDMQ20-M/control fold change: Epsin-1 (Epn1): 1.05
  TDMQ20-M/control fold change: Exosome complex exonuclease RRP44 (Dis3): 1.16
  TDMQ20-M/control fold change: Histone H2A.V: 1.14
  TDMQ20-M/control fold change: Histone H2B type 1-H (H2bc9): 1.05
  TDMQ20-M/control fold change: Histone H4 (H4c16): 1.12
  TDMQ20-M/control fold change: Mitochondrial dicarboxylase carrier (Slc25a10): 1.10
  TDMQ20-M/control fold change: Mitochondrial outer membrane protein SLC25A46 (Slc25a46): 1.10
  TDMQ20-M/control fold change: NADPH adrenodoxin oxidoreductase, mitochondrial (Fdxr): 1.10
  TDMQ20-M/control fold change: OCIA domain-containing protein 1 (Ociad1): 1.14
  TDMQ20-M/control fold change: PRKC apoptosis WT1 regulator protein (Pawr): 1.10
  TDMQ20-M/control fold change: Peroxisomal membrane protein-2 (Pxmp2): 1.14
  TDMQ20-M/control fold change: Probable ATP-dependent RNA helicase DDX17 (Ddx17): 1.01
  TDMQ20-M/control fold change: Protein Hook homolog 1 (Hook1): 1.07
  TDMQ20-M/control fold change: Protein LYRIC (Mtdh): 0.85
  TDMQ20-M/control fold change: Protein scribble homolog (Scrib): 1.07
  TDMQ20-M/control fold change: Protein-glutamine gamma-glutamyltransferase K (Tgm1): 0.90
  TDMQ20-M/control fold change: Regucalcin (Rgn): 1.07
  TDMQ20-M/control fold change: Ribonuclease P protein subunit p30 (Rpp30): 1.20
  TDMQ20-M/control fold change: SET nuclear proto-oncogene (Set): 0.95
  TDMQ20-M/control fold change: Sideroflexin-5 (Sfxn5): 1.06
  TDMQ20-M/control fold change: Zinc transporter 10 (Slc30a10): 0.94
[3]
  TDMQ20-H/control fold change: 2-Oxo-4-hydroxy-4-caboxy-5-ureidoimidazoline decarboxylase (Urad): 0.96
  TDMQ20-H/control fold change: ATP-citrate synthase (Acly): 0.97
  TDMQ20-H/control fold change: Alcohol deshydrogenase class-3 (Adh5): 0.86
  TDMQ20-H/control fold change: Aspartate-tRNA ligase, cytoplasmic (Dars1): 1.13
  TDMQ20-H/control fold change: Charged multivesicular body protein 7 (Chmp7): 0.94
  TDMQ20-H/control fold change: Cytochrome P450 2C70 (Cyp2c70): 0.88
  TDMQ20-H/control fold change: Desmin (Des): 0.88
  TDMQ20-H/control fold change: Mesencephalic astrocyte-derived neurotrophic factor (Manf): 0.91
  TDMQ20-H/control fold change: Nicotinamide/nicotinic acid mononucleotide adenylyltransferase 3 (Nmnat3): 0.94
  TDMQ20-H/control fold change: Progranulin (Gm): 1.04
  TDMQ20-H/control fold change: Putative phospholipase B-like 2 (Plbd2): 0.99
  TDMQ20-H/control fold change: Pyridoxine-5′-phosphate oxidase (Pnpo): 0.90
  TDMQ20-H/control fold change: Ribosome biogenesis protein BOP1 (Bop1): 0.97
  TDMQ20-H/control fold change: Triosephosphate isomerase (Tpi1): 0.90
[4]
  TDMQ20-H/control fold change: 28 kDa heat- and acid-stable phosphoprotein (Pdap1): 1.10
  TDMQ20-H/control fold change: AN1-type zinc finger protein 6 (Zfand6): 0.91
  TDMQ20-H/control fold change: ATP synthase subunit a (Mtatp6): 0.91
  TDMQ20-H/control fold change: Afadin (Afdn): 1.05
  TDMQ20-H/control fold change: Agmatinase, mitochondrial (Agmat): 1.01
  TDMQ20-H/control fold change: Alanine glyoxylate aminotransferase (Agxt): 1.03
  TDMQ20-H/control fold change: Alpha-1-antitrypsin-1-2 (Serpina1b): 1.04
  TDMQ20-H/control fold change: Cyclin-dependent kinase inhibitor 1B (Cdkn1b): 1.10
  TDMQ20-H/control fold change: Epsin-1 (Epn1): 0.93
  TDMQ20-H/control fold change: Exosome complex exonuclease RRP44 (Dis3): 1.00
  TDMQ20-H/control fold change: Histone H2A.V: 1.19
  TDMQ20-H/control fold change: Histone H2B type 1-H (H2bc9): 1.07
  TDMQ20-H/control fold change: Histone H4 (H4c16): 1.15
  TDMQ20-H/control fold change: Mitochondrial dicarboxylase carrier (Slc25a10): 1.00
  TDMQ20-H/control fold change: Mitochondrial outer membrane protein SLC25A46 (Slc25a46): 1.11
  TDMQ20-H/control fold change: NADPH adrenodoxin oxidoreductase, mitochondrial (Fdxr): 1.04
  TDMQ20-H/control fold change: OCIA domain-containing protein 1 (Ociad1): 1.08
  TDMQ20-H/control fold change: PRKC apoptosis WT1 regulator protein (Pawr): 1.18
  TDMQ20-H/control fold change: Peroxisomal membrane protein-2 (Pxmp2): 0.98
  TDMQ20-H/control fold change: Probable ATP-dependent RNA helicase DDX17 (Ddx17): 1.11
  TDMQ20-H/control fold change: Protein Hook homolog 1 (Hook1): 0.94
  TDMQ20-H/control fold change: Protein LYRIC (Mtdh): 1.06
  TDMQ20-H/control fold change: Protein scribble homolog (Scrib): 1.09
  TDMQ20-H/control fold change: Protein-glutamine gamma-glutamyltransferase K (Tgm1): 0.84
  TDMQ20-H/control fold change: Regucalcin (Rgn): 0.91
  TDMQ20-H/control fold change: Ribonuclease P protein subunit p30 (Rpp30): 1.20
  TDMQ20-H/control fold change: SET nuclear proto-oncogene (Set): 1.01
  TDMQ20-H/control fold change: Sideroflexin-5 (Sfxn5): 0.96
  TDMQ20-H/control fold change: Zinc transporter 10 (Slc30a10): 0.9
